Laboratory results: BindingDB's records for doi:10.1016/S0960-894X(00)80678-2 (1993)
Non-standard residues stand in square brackets, D forms with d. Residues, ends and D or L forms follow the SMILES beside them. *: point of attachment. 1Nal = N[C@@H](Cc1cccc2ccccc12)C(=O)O; Boc = CC(C)(C)OC(=O)*

Assays:
[1] = target: Gastrin/cholecystokinin type B receptor (Cavia porcellus); experiment: Tested for the inhibition of [3H]pCCK-8 binding to Cholecystokinin type B receptor in guinea pig brain
[2] = target: Gastrin/cholecystokinin type B receptor (Cavia porcellus); experiment: as above; remark: listed apart in the source

| Ki [1] | Ki [2] | Compound |
| --- | --- | --- |
| 0.46 nM | – | CCCC[C@@H](NC(=O)CC(=O)N[C@@H](Cc1c[nH]c2ccccc12)C(=O)N(C)[C@@H](CCCC)C(=O)N[C@@H](CC(=O)O)C(=O)N[C@@H](Cc1ccccc1)C(N)=O)NC(=O)[C@H](Cc1ccc(CS(=O)(=O)O)cc1)NC(=O)OC(C)(C)C [Boc-Phe(CH2-SO3Na)-gNle-mCIy-Trp-(N-Me)Nle-Asp-Phe-NH2] |
| 71 nM | – | CC(C)(C)OC(=O)N[C@@H](Cc1c[nH]c2ccccc12)C(=O)N[C@@H](Cc1ccccc1)C(=O)N[C@@H](CC(=O)O)C(=O)N[C@@H](Cc1cccc2ccccc12)C(N)=O [Boc-Trp-Phe-Asp-1Nal-NH2] (Boc-WFD[1Nal]-NH2) |
| – | 0.15 nM | CCCC[C@@H](NC(=O)CC(=O)N[C@@H](Cc1c[nH]c2ccccc12)C(=O)N(C)[C@@H](CCCC)C(=O)N[C@@H](CC(=O)O)C(=O)N[C@@H](Cc1ccccc1)C(N)=O)NC(=O)[C@H](Cc1ccc(OS(=O)(=O)O)cc1)NC(=O)OC(C)(C)C [Boc-Tyr(SO3Na)-gNle-mGIy-Trp-(N-Me)Nle-Asp-Phe-NH2] |
